In patent US6376670B1, “Quinoline-indole antimicrobial agents, uses and compositions related thereto” (Sepracor Inc., priority 1997, dated 2002):
Like-named read-outs stand apart in the source and are kept apart here.

Assays:
Streptococcus pneumoniae = assay: Determination of MIC values (BHI broth, 96 well microtiter plate); assay type: cell-based; conditions: BHI broth; for MIC: Streptococcus pneumoniae, read-out: MIC S. pneu
How it was run: (§1)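 MIC is read as the lowest drug concentration showing no observable growth after roughly 16 hours at 37° C in approx. 7-10% CO2. Testing used BHI broth containing compound at 0.39–25 µg/mL final, inoculated with 10^5 to 10^6 cells/mL.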

[1] = tested on: methicillin-resistant Staphylococcus aureus (MRSA); assay: as above; assay type: cell-based; conditions: BHI broth; for MIC: Staphylococcus aureus, MRSA, read-out: MIC MRSA
How it was run: as §1

[2] = tested on: vancomycin-resistant Enterococcus spp. (VRE); assay: as above; assay type: cell-based; conditions: BHI broth; for MIC: Enterococcus, VRE, read-out: MIC VREF
How it was run: as §1

[3] = Acute in vivo toxicity in mice, intraperitoneal injection; conditions: in 10% w/v hydroxypropyl-β-cyclodextrin in 0.9% w/v saline, 5 mice
Experimental: Solutions of compounds in 10% w/v hydroxypropyl-β-cyclodextrin in 0.9% w/v saline were prepared. Doses of 40 mg/kg or 120 mg/kg of each compound were administered to mice (5 mice/compound/dose) via intraperitoneal injections. The mice […] for seven days.

[4] = 37° C., overnight (about 16 hours)
[5] = 16 h, 37° C., overnight (about 16 hours)

| MIC (Streptococcus pneumoniae; 37° C., about 16 hours) [µg/mL] | MIC ([1]; 16 h, 37° C., about 16 hours) [µg/mL] | MIC ([2]; 16 h, 37° C., about 16 hours) [µg/mL] | Structure (SMILES) | Mice Surviving on Day 7 ([3]; 40 mg/kg intraperitoneal) [%] | Mice Surviving on Day 7 ([3]; 120 mg/kg intraperitoneal) [%] | also measured |
| --- | --- | --- | --- | --- | --- | --- |
| – | – | – | NCCNC(=O)c1cc(-c2c[nH]c3ccc(Br)cc23)nc2ccc(I)cc12 [Example 107] | 100 | 0 | MIC (Streptococcus pneumoniae; [4]): < 7 µg/mL; MIC [1, 5]: < 7 µg/mL; MIC [2, 5]: < 7 µg/mL |
| – | – | – | Fc1ccc2c(-c3ccc4cc(Cl)ccc4n3)c[nH]c2c1 [Example 193] | 100 | 100 | MIC (Streptococcus pneumoniae; [4]): < 7 µg/mL; MIC [1, 5]: < 7 µg/mL; MIC [2, 5]: < 7 µg/mL |
| – | – | – | COC(=O)c1cc(-c2c[nH]c3ccc(Br)cc23)nc2cc(F)ccc12 [Example 307] | 100 | 100 | MIC (Streptococcus pneumoniae; S. pneu, overnight 37° C.): < 7 µg/mL; MIC ([1]; overnight 37° C.): < 7 µg/mL; MIC ([2]; VREF, overnight 37° C.): < 7 µg/mL |
| – | – | – | NCCNC(=O)c1cc(-c2c[nH]c3ccc(Br)cc23)nc2cc(Cl)ccc12 [Example 316] | 80 | 0 | MIC (Streptococcus pneumoniae; S. pneu, overnight 37° C.): < 7 µg/mL; MIC ([1]; overnight 37° C.): < 7 µg/mL; MIC ([2]; VREF, overnight 37° C.): < 7 µg/mL |
| – | – | – | Clc1ccc2[nH]cc(-c3cc(Cl)c4ccccc4n3)c2c1 [Example 342] | 100 | 100 | MIC (Streptococcus pneumoniae; S. pneu, overnight 37° C.): < 7 µg/mL; MIC ([1]; overnight 37° C.): < 7 µg/mL; MIC ([2]; VREF, overnight 37° C.): > 25 µg/mL |
| – | – | – | Cn1cc(-c2cc(C(=O)NCCN)c3cc(I)ccc3n2)c2cc(Br)ccc21 [Example 359] | 100 | 100 | MIC (Streptococcus pneumoniae; S. pneu, overnight 37° C.): < 7 µg/mL; MIC ([1]; overnight 37° C.): < 7 µg/mL; MIC ([2]; VREF, overnight 37° C.): < 7 µg/mL |
| – | – | – | Cn1cc(-c2cc(C(=O)NCCN)c3cc(C#CCN4CCCCC4)ccc3n2)c2cc(Br)ccc21 [Example 379] | 40 | 0 | – |
| – | – | – | NCCNC(=O)c1cc(-c2c[nH]c3ccc(Br)cc23)nc2cc(Cl)c(C#CCN3CCCCC3)cc12 [Example 380] | 100 | 0 | MIC (Streptococcus pneumoniae; S. pneu, overnight 37° C.): < 7 µg/mL; MIC ([1]; overnight 37° C.): < 7 µg/mL; MIC ([2]; VREF, overnight 37° C.): < 7 µg/mL |
| – | – | – | COc1ccc2nc(-c3c[nH]c4ccc(Cl)cc34)ccc2c1 [Example 417] | 100 | 100 | – |
| – | – | – | OCc1cc(-c2c[nH]c3ccc(Br)cc23)nc2cc(F)ccc12 [Example 447] | 100 | 80 | MIC S. pneu (Streptococcus pneumoniae; 37° C., about 16 hours): < 7 µg/mL; MIC MRSA ([1]; 37° C., about 16 hours): < 7 µg/mL; MIC VREF ([2]; 37° C., about 16 hours): <7 µg/mL |
| < 7 | < 7 | < 7 | CN(C)CCN(C)C(=O)c1cc(-c2c[nH]c3ccc(Br)cc23)nc2cc(Cl)c(C#CCN3CCCCC3)cc12 [Example 512] | – | – | – |
| < 7 | < 7 | < 7 | CNCCN(C)C(=O)c1cc(-c2c[nH]c3ccc(Br)cc23)nc2cc(Cl)c(C#CCN3CCCCC3)cc12 [Example 513] | – | – | – |
| < 7 | < 7 | > 25 | COc1ccc(NC(=O)NCc2cc(-c3c[nH]c4ccc(Br)cc34)nc3cc(Cl)ccc23)cc1 [Example 514] | – | – | – |
| < 7 | < 7 | < 25 | O=C(O)c1cc(-c2c[nH]c3ccc(Br)cc23)nc2cc(Cl)c(C#CCN3CCCCC3)cc12 [Example 516] | – | – | – |
| < 7 | < 7 | > 25 | Brc1ccc2[nH]cc(-c3nc4ccc(C#CCN5CCCCC5)cc4c4c3CCO4)c2c1 [Example 517] | – | – | – |
| < 7 | < 7 | < 7 | OCc1cc(-c2c[nH]c3ccc(Br)cc23)nc2cc(Cl)c(C#CCN3CCCCC3)cc12 [Example 518] | – | – | – |
| < 7 | < 7 | > 25 | CC(C)CNC(=O)c1cc(-c2c[nH]c3ccc(Br)cc23)nc2ccc(C#CCN3CCCCC3)cc12 [Example 519] | – | – | – |

| MIC (Streptococcus pneumoniae; 37° C., about 16 hours) [µg/mL] | MIC ([1]; 16 h, 37° C., about 16 hours) [µg/mL] | MIC ([2]; 16 h, 37° C., about 16 hours) [µg/mL] | Structure (SMILES) | Mice Surviving on Day 7 ([3]; 40 mg/kg intraperitoneal) [%] | Mice Surviving on Day 7 ([3]; 120 mg/kg intraperitoneal) [%] | also measured |
| --- | --- | --- | --- | --- | --- | --- |
| < 7 | < 7 | < 7 | CN(CC[N+](C)(C)C)C(=O)c1cc(-c2c[nH]c3ccc(Br)cc23)nc2cc(Cl)ccc12 [Example 520] | – | – | – |
| < 7 | < 7 | > 25 | CC(C)(C)NC(=O)NCc1cc(-c2c[nH]c3ccc(Br)cc23)nc2cc(Cl)ccc12 [Example 521] | – | – | – |
| < 7 | < 7 | < 25 | N#CCc1cc(-c2c[nH]c3ccc(Br)cc23)nc2cc(Cl)ccc12 [Example 522] | – | – | – |
| < 7 | < 7 | < 7 | NCCNC(=O)c1cc(-c2c[nH]c3ccc(Br)cc23)nc2ccc(C#CCO)cc12 [Example 523] | – | – | – |
| < 7 | < 7 | < 7 | O=C(NCc1cc(-c2c[nH]c3ccc(Br)cc23)nc2cc(Cl)ccc12)NC1CCCCC1 [Example 524] | – | – | – |
| < 7 | < 7 | < 7 | NCCNC(=O)c1cc(-c2c[nH]c3ccc(Br)cc23)nc2ccc(C#CCN3CCSCC3)cc12 [Example 525] | – | – | – |
| < 7 | < 7 | < 7 | NCCNC(=O)c1cc(-c2c[nH]c3ccc(Br)cc23)nc2ccc(C#CCN3CC=CCC3)cc12 [Example 526] | – | – | – |
| < 7 | < 7 | < 7 | NCCNC(=O)c1cc(-c2c[nH]c3ccc(Br)cc23)nc2ccc(C#CCNCCc3ccccc3)cc12 [Example 527] | – | – | – |
| < 7 | < 7 | < 7 | NCCNC(=O)c1cc(-c2c[nH]c3ccc(Br)cc23)nc2cc(Cl)c(C#CCN3CCSCC3)cc12 [Example 528] | – | – | – |
| < 7 | < 7 | < 7 | NCCNC(=O)c1cc(-c2c[nH]c3ccc(Br)cc23)nc2cc(Cl)c(C#CCN3CC=CCC3)cc12 [Example 529] | – | – | – |
| < 7 | < 7 | < 7 | NCCNC(=O)c1cc(-c2c[nH]c3ccc(Br)cc23)nc2cc(Cl)c(C#CCNCCc3ccccc3)cc12 [Example 530] | – | – | – |
| < 7 | < 7 | < 7 | Cc1cc2ccccc2nc1-c1c[nH]c2ccc(Cl)cc12 [Example 531] | – | – | – |
| < 7 | < 7 | < 7 | NCC(O)CNC(=O)c1cc(-c2c[nH]c3ccc(Br)cc23)nc2cc(F)ccc12 (stereo not drawn) [Example 532] | – | – | – |
| < 7 | < 7 | < 7 | NCC(O)CNC(=O)c1cc(-c2c[nH]c3ccc(Br)cc23)nc2cc(Cl)cc(Cl)c12 (stereo not drawn) [Example 533] | – | – | – |
| < 7 | < 7 | < 7 | NCC(O)CNC(=O)c1cc(-c2c[nH]c3ccc(Br)cc23)nc2ccc(C#CCN3CCCCC3)cc12 (stereo not drawn) [Example 534] | – | – | – |
| – | – | – | NCc1ccc(CNC(=O)c2cc(-c3c[nH]c4ccc(Br)cc34)nc3ccccc23)cc1 [compound 9] | – | – | MIC (Streptococcus pneumoniae; [4]): < 7 µg/mL; MIC [1, 5]: < 7 µg/mL; MIC [2, 5]: < 7 µg/mL |
| – | – | – | NCc1ccc(CNC(=O)c2cc(-c3c[nH]c4ccc(Br)cc34)nc3ccc(I)cc23)cc1 [compound 53] | – | – | MIC (Streptococcus pneumoniae; [4]): < 7 µg/mL; MIC [1, 5]: < 7 µg/mL; MIC [2, 5]: < 7 µg/mL |

| Structure (SMILES) | MIC (Streptococcus pneumoniae; 37° C., about 16 hours) [µg/mL] | MIC ([1]; 16 h, 37° C., about 16 hours) [µg/mL] | MIC ([2]; 16 h, 37° C., about 16 hours) [µg/mL] | Mice Surviving on Day 7 ([3]; 40 mg/kg intraperitoneal) [%] | Mice Surviving on Day 7 ([3]; 120 mg/kg intraperitoneal) [%] | also measured |
| --- | --- | --- | --- | --- | --- | --- |
| NCCNC(=O)c1cc(-c2c[nH]c3ccc(Br)cc23)nc2ccc(C#CCN3CCCCC3)cc12 [Example 418] | < 7 | < 7 | < 7 | 100 | 0 | – |
| Cn1cc(-c2cc(C(=O)NCCN)c3cc(C#CCN4CCCCC4)c(Cl)cc3n2)c2cc(Br)ccc21 [Example 419] | < 7 | < 7 | < 7 | 40 | 0 | – |
| Cn1cc(-c2cc(C(=O)NCCN)c3ccc(Cl)cc3n2)c2cc(Br)ccc21 [Example 420] | < 7 | < 7 | < 7 | 100 | 100 | – |
| Fc1ccc2c(-c3cc(Cl)c4ccc(Cl)cc4n3)c[nH]c2c1 [Example 461] | < 7 | < 7 | < 7 | 100 | 100 | – |
| Cc1ccc2[nH]cc(-c3cc(Cl)c4ccc(Cl)cc4n3)c2c1 [Example 474] | < 7 | < 7 | < 25 | 100 | 100 | – |
